Among the data in US10959432B2, “Microbiocidal oxadiazole derivatives” (Syngenta Participations AG, priority 2016, dated 2021) are pest or weed control and inhibition values, retold here.

Assay [1] has as its system Phakopsora pachyrhizi. Put plainly: Fungicidal activity against Phakopsora pachyrhizi / soybean / leaf disc preventative (Asian soybean rust). Type of assay: in vivo. Conditions: foliar, read-out: disease control compared to untreated control leaf disks. As to the method: Leaf disks or leaf segments of various plant species are cut from plants grown in a greenhouse. The cut leaf disks or segments are placed in multiwell plates (24-well format) onto water agar. The leaf disks are sprayed with a test solution before (preventative) or after (curative) inoculation. Compounds to be tested are prepared as DMSO solutions (max. 10 mg/ml) which are diluted to the appropriate concentration with 0.025% Tween20 just before spraying. The inoculated leaf disks or segments are incubated under defined conditions (temperature, relative humidity, light, etc.) according to the respective test system. A single evaluation of disease level is carried out 3 to 14 days after inoculation, depending on the pathosystem. Percent disease control relative to the untreated check leaf disks or segments is then calculated. General Examples of Liquid Culture Tests in Well Plates:
Example 3: Fungicidal Activity Against Phakopsora pachyrhizi/Soybean/Leaf Disc Preventative (Asian Soybean Rust)
Soybean leaf disks are placed on water agar in multiwell plates (24-well format) and sprayed with the formulated test compound diluted in water. One day after application leaf discs are inoculated by spraying a spore suspension on the lower leaf surface. After an incubation period in a climate cabinet of 24-36 hours in darkness at 20° C. and 75% rh leaf disc are kept at 20° C. with 12 h light/day and 75% rh. The activity of a compound is assessed as percent disease control compared to untreated when an appropriate level of disease damage appears in untreated check leaf disks (12 to 14 days after application).
The following compounds at 200 ppm in the applied formulation give at least 80% disease control in this test when compared to untreated control leaf disks under the same conditions, which show extensive disease development.

In assay [2] the test system is Glomerella laqenarium (Colletotrichum lagenarium). Put plainly: Fungicidal activity against Glomerella lagenarium (Colletotrichum lagenarium) liquid culture / cucumber / preventative (anthracnose). Format: cell-based. The conditions noted are these: Colletotrichum orbiculare, read-out: disease control compared to untreated control (inhibition of growth measured photometrically). As to the method:
Mycelia fragments or conidia suspensions of a fungus prepared either freshly from liquid cultures of the fungus or from cryogenic storage, are directly mixed into nutrient broth. DMSO solutions of the test compound (max. 10 mg/ml) are diluted with 0.025% Tween20 by a factor of 50 and 10 μl of this solution is pipetted into a microtiter plate (96-well format). The nutrient broth containing the fungal spores/mycelia fragments is then added to give an end concentration of the tested compound. The test plates are incubated in the dark at 24° C. and 96% relative humidity. The inhibition of fungal growth is determined photometrically after 2 to 7 days, depending on the pathosystem, and percent antifungal activity relative to the untreated check is calculated.
Example 4: Fungicidal Activity Against Glomerella laqenarium (Colletotrichum lagenarium) Liquid Culture/Cucumber/Preventative (Anthracnose)
Conidia of the fungus from cryogenic storage are directly mixed into nutrient broth (PDB—potato dextrose broth). After placing a (DMSO) solution of test compound into a microtiter plate (96-well format), the nutrient broth containing the fungal spores is added. The test plates are incubated at 24° C. and the inhibition of growth is measured photometrically 3 to 4 days after application.
The following compounds at 20 ppm in the applied formulation give at least 80% disease control in this test when compared to untreated control under the same conditions, which show extensive disease development.

Where [3] appears, read: 200 ppm in the applied formulation, soybean leaf disks, preventative (inoculated one day after application), assessed 12 to 14 days after application.
Where [4] appears, read: 20 ppm in the applied formulation, liquid culture in PDB, 24° C., 3 to 4 days after application.

Like-named read-outs stand apart in the source and are kept apart here. A value given as a limit tells only on which side of the number the result lay.

Consider `CCC(CC)CNC(=O)c1ccc(-c2noc(C(F)(F)F)n2)cc1F` [Compound 3b.42, N-(2-ethylbutyl)-2-fluoro-4-[5-(trifluoromethyl)-1,2,4-oxadiazol-3-yl]benzamide], for which the pest or weed control at 200 ppm in assay [1] (setting [3]) is not below 80%. In the case of `COC1=NS(C)=NC(N(C)C(=O)c2ccc(-c3noc(C(F)(F)F)n3)cc2F)=N1` (stereo not drawn) [Compound 5b.8, 2-fluoro-N-(5-methoxy-1-methyl-1-thia-2,4,6-triazacyclohexa-2,4,6-trien-3-yl)-N-methyl-4-[5-(trifluoromethyl)-1,2,4-oxadiazol-3-yl]benzamide], the pest or weed control at 200 ppm in assay [1] (setting [3]) was not below 80%. For the compound `CN(CCO)C(=O)c1ccc(-c2noc(C(F)(F)F)n2)cc1F` [Compound 3b.25, 2-fluoro-N-(2-hydroxyethyl)-N-methyl-4-[5-(trifluoromethyl)-1,2,4-oxadiazol-3-yl]benzamide], the pest or weed control at 200 ppm in assay [1] (setting [3]) was not below 80%. Turning to `Cc1cc(C#N)c(NC(=O)c2ccc(-c3noc(C(F)(F)F)n3)cc2)s1` [Compound 5a.1, N-(3-cyano-5-methyl-2-thienyl)-4-[5-(trifluoromethyl)-1,2,4-oxadiazol-3-yl]benzamide], the pest or weed control at 200 ppm in assay [1] (setting [3]) was not below 80%. For `CN(CCCCO)C(=O)c1ccc(-c2noc(C(F)(F)F)n2)cc1` [Compound 3a.19, N-(4-hydroxybutyl)-N-methyl-4-[5-(trifluoromethyl)-1,2,4-oxadiazol-3-yl]benzamide], the pest or weed control at 200 ppm in assay [1] (setting [3]) is not below 80%. Consider `CC(C)CN(CC(C)C)C(=O)c1ccc(-c2noc(C(F)(F)F)n2)cc1` [Compound 3a.23, N,N-diisobutyl-4-[5-(trifluoromethyl)-1,2,4-oxadiazol-3-yl]benzamide], for which, in assay [1] (setting [3]), the pest or weed control at 200 ppm is not below 80%. In assay [2] (setting [4]), the inhibition at 20 ppm was not below 80%.

As to `COCCN(C(=O)c1ccc(-c2noc(C(F)(F)F)n2)cc1F)C(C)C` [Compound 3b.13, 2-fluoro-N-isopropyl-N-(2-methoxyethyl)-4-[5-(trifluoromethyl)-1,2,4-oxadiazol-3-yl]benzamide], in assay [1] (setting [3]), the pest or weed control at 200 ppm is not below 80%. For the same compound, in assay [2] (setting [4]), the inhibition at 20 ppm was not below 80%. With `CN(CC(C)(C)CO)C(=O)c1ccc(-c2noc(C(F)(F)F)n2)cc1` [Compound 3a.8, N-(3-hydroxy-2,2-dimethyl-propyl)-N-methyl-4-[5-(trifluoromethyl)-1,2,4-oxadiazol-3-yl]benzamide], the pest or weed control at 200 ppm in assay [1] (setting [3]) was not below 80%. Further, the inhibition at 20 ppm in assay [2] (setting [4]) is not below 80%. Consider `CCC(CC)CNC(=O)c1ccc(-c2noc(C(F)(F)F)n2)cc1` [Compound 3a.39, N-(2-ethylbutyl)-4-[5-(trifluoromethyl)-1,2,4-oxadiazol-3-yl]benzamide], for which, in assay [1] (setting [3]), the pest or weed control at 200 ppm was not below 80%. Further, the inhibition at 20 ppm in assay [2] (setting [4]) was not below 80%.

For `CCCCCCNC(=O)c1ccc(-c2noc(C(F)(F)F)n2)cc1` [Compound 3a.29, N-hexyl-4-[5-(trifluoromethyl)-1,2,4-oxadiazol-3-yl]benzamide], the pest or weed control at 200 ppm in assay [1] is not below 80%. The inhibition at 20 ppm in assay [2] is not below 80%. Turning to `CC(C)(CCO)NC(=O)c1ccc(-c2noc(C(F)(F)F)n2)cc1` [Compound 3a.42, N-(3-hydroxy-1,1-dimethyl-propyl)-4-[5-(trifluoromethyl)-1,2,4-oxadiazol-3-yl]benzamide], in assay [1] (setting [3]), the pest or weed control at 200 ppm was not below 80%. With `CCCCN(CCO)C(=O)c1ccc(-c2noc(C(F)(F)F)n2)cc1` [Compound 3a.25, N-butyl-N-(2-hydroxyethyl)-4-[5-(trifluoromethyl)-1,2,4-oxadiazol-3-yl]benzamide], the pest or weed control at 200 ppm in assay [1] (setting [3]) was not below 80%. Also, the inhibition at 20 ppm in assay [2] (setting [4]) was not below 80%. Consider `CCCN(CC1CC1)C(=O)c1ccc(-c2noc(C(F)(F)F)n2)cc1` [Compound 2a.1, N-(cyclopropylmethyl)-N-propyl-4-[5-(trifluoromethyl)-1,2,4-oxadiazol-3-yl]benzamide], for which the pest or weed control at 200 ppm in assay [1] (setting [3]) was not below 80%. In assay [2] (setting [4]), the inhibition at 20 ppm is not below 80%. On to `O=C(Nc1cn[nH]c1)c1ccc(-c2noc(C(F)(F)F)n2)cc1` [Compound 5a.3, N-(1H-pyrazol-4-yl)-4-[5-(trifluoromethyl)-1,2,4-oxadiazol-3-yl]benzamide], for which, in assay [1] (setting [3]), the pest or weed control at 200 ppm is not below 80%.

A word on the inhibition: it is the relative decrease from the control value, in per cent.
